Source: publication PMC12435366, “Maleic anhydride derived diphosphines: adaptable chelators for receptor-targeted ^99mTc, ^64Cu and ^188Re radiotracers” (Chemical Science, 2025)

System: LNCaP prostate cancer cells
Test: In vitro uptake of 99mTc tracers in LNCaP cells
Format: cell-based
Settings: co-incubation with PMPA, 1 h
Protocol: To compare the relative uptake and specificity of the new radiotracers for PSMA, [^99mTcO2(DP^Ph-PSMAt)2]^+, [^99mTcO2(DP^An-PSMAt)2]^+ and [^99mTcO2(DP^MEP-PSMAt)2]^+ (50 kBq) were purified from unreacted ^99mTc precursors and excess DP-PSMAt peptide, and each incubated with PSMA-expressing DU145-PSMA+ prostate cancer cells[33] or LNCaP prostate cancer cells (5 × 10^5 cells). After 1 h incubation, uptake of each radiotracer was quantified. […]
4.9 99mTc uptake in DU145, DU145-PSMA+ and LNCaP cells
The following experiment was performed in biological triplicate.
A panel of cell lines were selected that either expressed GCP(II)/PSMA (DU145-PSMA+ (genetically modified to express PSMA),12 and LNCaP (CRL‐1740)), or had low GCP(II)/PSMA expression (DU145 (HTB-81)). All cell lines were cultured in RPMI 1640 medium (R0883, Sigma) containing 10% foetal bovine serum, 2 mM L-glutamine, and 100 U mL−1 penicillin and 100 µg mL−1 streptomycin. Cells were maintained at 37 °C and 5% CO 2. Cells were seeded in 6-well plates at a density of 5 × 10^5 cells per well […]
in 2 mL complete media to achieve 70–80% confluency the following day. […] The cells were lysed with ice cold radioimmunoprecipitation assay buffer (RIPA buffer, 500 μL; 150 mM sodium chloride, 0.1% w/w sodium dodecyl sulfate (SDS), 0.5% w/w sodium deoxycholate (NaDOC), 1% w/w Triton-X) and samples were collected for radioactivity counting. […]

COCCOc1ccc(P(/C(C(=O)O)=C(/C(=O)NCCOCCOCCOCCOCCC(=O)NCCCC[C@H](NC(=O)N[C@@H](CCC(=O)O)C(=O)O)C(=O)O)P(c2ccc(OCCOC)cc2)c2ccc(OCCOC)cc2)c2ccc(OCCOC)cc2)cc1 [[^99mTcO2(DP^MEP-PSMAt)2]^+, metal not drawn] was tested, and the “blocking of cell uptake by PSMA inhibitor PMPA” value was “blocked”.
In the case of COc1ccc(P(/C(C(=O)O)=C(/C(=O)NCCOCCOCCOCCOCCC(=O)NCCCC[C@H](NC(=O)N[C@@H](CCC(=O)O)C(=O)O)C(=O)O)P(c2ccc(OC)cc2)c2ccc(OC)cc2)c2ccc(OC)cc2)cc1 [[^99mTcO2(DP^An-PSMAt)2]^+, metal not drawn], the “blocking of cell uptake by PSMA inhibitor PMPA” value is reported as “blocked”.
